Here are results for five compounds from PMC12113681, “Discovery, Biological Evaluation and Binding Mode Investigation of Novel Butyrylcholinesterase Inhibitors Through Hybrid Virtual Screening” (Molecules, 2025).

“Also recorded” adds a separate entry of the source. Read-outs that look alike come from different tables or passages of the source.

Series [1] addresses T1, BChE (Equus caballus, UniProt P81908). Kind of series: Fluorescence quenching experiment (Stern-Volmer, Van't Hoff analysis). The format is binding. The note with it: for quenching rate constant (Kq): τ0 10^−8 s; for Kd: Ka (binding constant); for ∆H / ∆S: Van't Hoff, 298-310 K, regarded as a constant. The method, then:
Then, the Stern–Volmer Equation (1) was applied to analyze their quenching mechanisms.
Their binding constants (Ka) and binding sites (n) (Table 4) with BChE were calculated using the double logarithmic Equation (2) (Figure 5G,H).
Thermodynamic parameter analysis offers valuable insights into the predominant interaction forces governing the binding process between ligand and protein, which may encompass hydrogen bonding, electrostatic interactions, hydrophobic effects, van der Waals forces, and π-effects. By applying the Van’t Hoff Equation (3) and the Gibbs–Helmholtz Equation (4), the thermodynamic parameters—including change (ΔS), enthalpy change (ΔH), and Gibbs free energy change (ΔG)—for the interactions of piboserod and Rotigotine at various temperatures.
Fluorescence quenching experiment. The fluorescence intensity of the inhibitor–BChE complex was measured using a microplate reader with an all-black 96-well plate at three different temperatures (298, 304, and 310 K). The excitation wavelength was set to 280 nm, and the emission spectrum was scanned over the range of 320–460 nm with a slit width of 5 nm. The BChE concentration was maintained constant at 5 U·mL^−1, while the compound concentration was varied in a gradient (0 to 50 μM). After mixing the compound and BChE, the samples were incubated at the designated temperature for 30 min prior to measurement. A PBS solution was used as a blank to account for background fluorescence and ensure accurate correction of the fluorescence intensity measurements.

For series [2], the system named is PC12 cells. Kind of series: Neuroprotection in H2O2-induced injury model, MTT assay. The format is cell-based. The note with it: for neuroprotective activity: 5 to 50 μM; for viability at 50 µM: Rattus norvegicus, PC-12, read-out: cell viability. The protocol:
To assess the neuroprotective potential of the compounds, an H2O2-induced injury model in PC12 cells was established. PC12 cells were seeded into 96-well plates and incubated for 24 h, as described previously. […].
(Tetrazolium dyes change colour on reduction, which living cells bring about.)

The target in series [3] is T2, BChE (horse-serum, E.C. 3.1.1.8) (Equus caballus, UniProt P81908).
T2 construct: Sigma, St. Louis, MO, USA, horse-serum, E.C; 3.1.1.8; purchased Sigma; host or cells: horse serum
Put plainly: biochemical. The method, then: The inhibitory activity of BChE was evaluated using 96-well plates on a microplate reader (Varioskan LUX, Thermo Fisher, Waltham, MA, USA) based on a modified Ellman method. Briefly, 25 μL of BChE solution (0.2 U·mL^−1, Sigma, St. Louis, MO, USA, horse-serum, E.C. 3.1.1.8) was combined with 65 μL of phosphate buffer (PBS, 0.1 M, pH 8.0), 125 μL of 5,5′-dithio-bis(2-nitrobenzoic acid) (DTNB, 3 mM), and 10 μL of a test compound at varying concentrations. Small molecules (50 mM, Topscience) were initially dissolved in dimethyl sulfoxide (DMSO) and subsequently diluted to desired concentrations using PBS. The reaction mixture was preincubated at 37 °C for 20 min. Following this, 25 μL of butyrylthiocholine iodide (BTC, 15 mM) was added, and the absorbance was measured at 412 nm in 30-s intervals for 3 min.

The target of series [4] is T1, BChE. Kind of series: BChE enzyme kinetic study (Lineweaver-Burk). The format is biochemical. Conditions: for inhibition type: Lineweaver-Burk plots; for reversibility of inhibition: plots of v vs [BChE] at different inhibitor concentrations. Details: Sigma, St. Louis, MO, USA, horse-serum, E.C; 3.1.1.8; purchased Sigma; host or cells: horse serum. The method, then:
Kinetic studies were performed to clarify the inhibition mechanism of piboserod and Rotigotine. Figure 4A,B illustrates the relationship between BChE concentration ([BChE]) and catalytic rate (v) at different inhibitor concentrations ([I]). […] Lineweaver–Burk plots were used to characterize their inhibition types. […]. The inhibition constant (Ki) values were calculated based on Lineweaver–Burk secondary plots (Figure 4C,D). […]. […].
Kinetic studies were conducted to measure reaction rates using the same methodology as in the enzyme inhibition experiments. […]. The relationship between reaction rates and enzyme concentrations was used to assess whether the inhibition was reversible. Additionally, reaction rates (v, △OD417 ·min^−1) were measured at a constant BChE concentration (0.2 U·mL^−1) while varying substrate concentrations (0.05, 0.1, 0.2, 0.4, 0.8 mM). A double-reciprocal Lineweaver–Burk plot of reaction rate versus substrate concentration was generated to elucidate the inhibition type based on the intersection points of the curves. Common inhibition types were identified as follows: competitive (intersects on the Y-axis), non-competitive (intersects on the X-axis), uncompetitive (parallel lines), and mixed (intersects in the second or third quadrant). […]

Series [5] can be described thus: in vitro. Conditions: rat. The method, then:
(§1) Well-differentiated rat adrenal pheochromocytoma cells (PC12) and the corresponding culture medium (WHAA24F163) were obtained from Procell Life Technology Co., Ltd. (Wuhan, China). The culture medium was supplemented with 10% fetal bovine serum (FBS, 164210-50) and 1% antibiotics (a penicillin–streptomycin mixture). PC12 cells were seeded into sterile 96-well plates at a density of 7000 cells per well (100 μL) and incubated for 24 h in a humidified incubator at 37 °C with 5% CO2. Subsequently, the cells were treated with varying concentrations of the test compounds (10, 20, and 50 μM in 100 μL) and cultured for an additional 24 h. Cell viability was assessed using the 3-(4,5-dimethylthiazol-2-yl)-2,5-diphenyltetrazolium bromide (MTT) assay (Xavier, Wuhan, China), following protocols described in a prior study.

Series [6] deals with PC12 cells. Kind of series: in vitro. Conditions: PC-12 cells. The protocol: as §1
[7] abbreviates: PC-12 cells, hydrogen peroxide injury.

T1 sequence (P81908 whole entry): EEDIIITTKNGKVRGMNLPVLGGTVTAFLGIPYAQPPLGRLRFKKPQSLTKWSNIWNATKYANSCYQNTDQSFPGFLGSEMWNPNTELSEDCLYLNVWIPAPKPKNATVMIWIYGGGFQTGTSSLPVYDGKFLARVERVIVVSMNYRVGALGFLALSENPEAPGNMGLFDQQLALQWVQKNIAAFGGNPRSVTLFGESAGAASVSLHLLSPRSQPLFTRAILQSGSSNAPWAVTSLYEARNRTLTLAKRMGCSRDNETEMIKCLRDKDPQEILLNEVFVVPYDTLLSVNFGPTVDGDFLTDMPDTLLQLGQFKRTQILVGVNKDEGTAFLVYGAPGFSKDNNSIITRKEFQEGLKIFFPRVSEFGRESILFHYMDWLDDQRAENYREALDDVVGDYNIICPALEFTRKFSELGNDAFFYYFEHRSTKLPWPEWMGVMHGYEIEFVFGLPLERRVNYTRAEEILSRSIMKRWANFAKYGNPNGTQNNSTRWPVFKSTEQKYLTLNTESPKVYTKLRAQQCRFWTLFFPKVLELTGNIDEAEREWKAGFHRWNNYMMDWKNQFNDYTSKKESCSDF
T2 sequence (P81908 whole entry): as above

One may read the Kd as the concentration at which binding is half-saturated. The viability is a per cent measure of how many cells are alive, often set against a control. For orientation: IC50 means the concentration that inhibits the measured activity by half. By Ki is commonly meant a dissociation constant, usually derived from enzyme kinetics or from competition with a known ligand. A higher Ki goes with a looser hold on the target. As for `CCCN(CCc1cccs1)[C@H]1CCc2c(O)cccc2C1` [Rotigotine], in series [1] (298 K), the Ksv turned out to be 2640 L/mol, the “n (binding sites)” value is given as 1.066, the “∆G” value was -21.20 kJ/mol and the “quenching rate constant (Kq)” value was determined as 2.64e+11 L/mol/s. The compound further showed a Kd in series [1] (298 K) of 19.7 µM. For the same compound, in series [1] (304 K), the Ksv stood at 2250 L/mol, the “n (binding sites)” value is recorded as 1.022, the “∆G” value was -20.03 kJ/mol and binding was characterised by a dissociation constant (Kd) of 34.5 µM. Moreover, in series [1] (310 K), the Ksv came to 1540 L/mol, the “n (binding sites)” value is 0.975 and binding was characterised by a dissociation constant (Kd) of 68.1 µM. Further, in series [1], the “∆H” value was -79.41 kJ/mol and the “∆S” value is listed as −195.34 J·mol^−1·K^−1. Also, the neuroprotective activity entry in series [2] (setting [7]) is recorded as “significant neuroprotective activities”. The viability at 50 µM in series [2] was 70%. In series [3], inhibition was half-maximal at 12.8 ± 4.22 µM (IC50). Also, in series [4], the inhibition constant Ki came to 6.76 µM, the inhibition type entry is reported as “non-competitive inhibitor; also recorded: non-competitive inhibition” and the reversibility of inhibition entry is “reversibly inhibit BChE”.
As for `COc1cc2c(NC3CCN(C)CC3)nc(N3CCCN(C)CC3)nc2cc1OCc1ccccc1` [TM2-115], the IC50 in series [3] (read-out: IC50) is roughly 50 µM.
In series [5], `Nc1c2c(nc3ccccc13)CCCC2` [Tacrine] gave a viability at 50 µM of 65%.
Regarding `CN1C[C@H](CNC(=O)OCc2ccccc2)C[C@@H]2c3cccc4c3c(cn4C)C[C@H]21` [Metergoline], the neurotoxicity result in series [6] (lowest concentration (10 μM)) is recorded as “no neurotoxicity”. In addition, the cytotoxicity entry in series [6] (maximum concentration) was “higher cytotoxicity than that of Tacrine”. The neuroprotective effect entry in series [2] (PC-12 cells, hydrogen peroxide injury, low concentrations (5–10 μM)) is on record as “modest neuroprotective effects”. In series [3], this compound yielded an IC50 of 18.4 ± 3.29 µM.
With `CCCCN1CCC(CNC(=O)c2c3n(c4ccccc24)CCCO3)CC1` [piboserod], in series [1] (298 K), the Ksv is 5250 L/mol, the “n (binding sites)” value came to 1.052, the “∆G” value is -22.48 kJ/mol and the “quenching rate constant (Kq)” value turned out to be 5.25e+11 L/mol/s. This compound showed a Kd in series [1] (298 K) of 11.6 µM. Besides, in series [1] (304 K), the Ksv stood at 4720 L/mol, the “n (binding sites)” value is given as 1.035, the “∆G” value was -22.21 kJ/mol and the dissociation constant Kd was 14.9 µM. Also, in series [1] (310 K), the Ksv came out at 4250 L/mol, the “n (binding sites)” value was determined as 1.014, the “∆G” value was -21.94 kJ/mol and the Kd is 20.4 µM. Also, in series [1], the “∆H” value was -35.77 kJ/mol and the “∆S” value is listed as −44.61 J·mol^−1·K^−1. For the same compound, the neuroprotective activity result in series [2] (setting [7]) is reported as “significant neuroprotective activities”. In addition, the viability at 50 µM in series [2] is 66%. Also, in series [3], the IC50 amounted to 15.3 ± 3.84 µM. In series [4], the Ki came to 10.7 µM, the inhibition type entry was “mixed inhibitor; also recorded: mixed-type inhibition” and the reversibility of inhibition result is recorded as “reversibly inhibit BChE”. Further, in series [4] (Lineweaver-Burk secondary plots), the “α value (ratio of non-competitive to competitive inhibition constants)” value is 3.01.
